Assay results taken from article PMC6556873, “Rapid Covalent-Probe Discovery by Electrophile-Fragment Screening” (Journal of the American Chemical Society, 2019).
Read-outs that look alike come from different tables or passages of the source.

Columns and labels:
[1] = biological target: T1, BSA (Bos taurus, UniProt P02769); set-up: Intact protein LC/MS covalent labelling, fragments in pools of five, 200 uM each, 4 °C; conditions: 24 h, 4 °C, pool of five; 200 µM; covalent
T1 construct: gene ALB
T1 sequence (P02769 whole entry, the tested form may be a part): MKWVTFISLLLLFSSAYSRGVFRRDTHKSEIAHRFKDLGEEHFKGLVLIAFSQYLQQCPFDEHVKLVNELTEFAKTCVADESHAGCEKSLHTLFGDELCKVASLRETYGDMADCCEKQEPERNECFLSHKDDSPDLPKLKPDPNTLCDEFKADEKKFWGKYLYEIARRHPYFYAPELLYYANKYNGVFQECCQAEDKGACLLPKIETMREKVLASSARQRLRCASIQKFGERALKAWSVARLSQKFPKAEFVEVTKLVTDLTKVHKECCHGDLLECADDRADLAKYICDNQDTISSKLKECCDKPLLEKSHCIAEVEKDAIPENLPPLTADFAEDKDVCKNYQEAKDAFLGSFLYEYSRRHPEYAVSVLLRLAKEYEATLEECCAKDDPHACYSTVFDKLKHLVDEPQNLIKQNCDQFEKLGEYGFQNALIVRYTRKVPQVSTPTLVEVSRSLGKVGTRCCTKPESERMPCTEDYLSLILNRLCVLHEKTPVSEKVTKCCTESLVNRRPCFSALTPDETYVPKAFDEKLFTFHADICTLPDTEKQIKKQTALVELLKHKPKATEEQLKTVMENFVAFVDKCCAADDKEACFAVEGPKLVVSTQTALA

[2] = biological target: T2, NUDT7 (Homo sapiens, UniProt P0C024); set-up: Intact protein LC/MS covalent labelling, fragments in pools of five, 200 uM each, 4 °C; conditions: 24 h, 4 °C, pool of five; 200 µM; covalent
T2 construct: residues 14-235, E. coli, pNIC28-Bsa4, N-terminal His6 tag removed by TEV, construct 26672 Da
T2 sequence (P0C024 14-235): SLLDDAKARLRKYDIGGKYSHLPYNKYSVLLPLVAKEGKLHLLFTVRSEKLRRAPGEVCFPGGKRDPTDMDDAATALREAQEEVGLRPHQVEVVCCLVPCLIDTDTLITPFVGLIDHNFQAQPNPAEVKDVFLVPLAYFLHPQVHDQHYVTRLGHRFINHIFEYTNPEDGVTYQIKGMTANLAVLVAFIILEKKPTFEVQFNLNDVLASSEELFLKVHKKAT

[3] = biological target: T3, OTUB2 (OTUB2A) (Homo sapiens, UniProt Q96DC9); set-up: Intact protein LC/MS covalent labelling, fragments in pools of five, 200 uM each, 4 °C; conditions: 24 h, 4 °C, pool of five; 200 µM; covalent
T3 construct: full length residues 1-234, E. coli BL21(DE3)-R3, His tag removed by TEV, construct 27312 Da
T3 sequence (Q96DC9 1-234): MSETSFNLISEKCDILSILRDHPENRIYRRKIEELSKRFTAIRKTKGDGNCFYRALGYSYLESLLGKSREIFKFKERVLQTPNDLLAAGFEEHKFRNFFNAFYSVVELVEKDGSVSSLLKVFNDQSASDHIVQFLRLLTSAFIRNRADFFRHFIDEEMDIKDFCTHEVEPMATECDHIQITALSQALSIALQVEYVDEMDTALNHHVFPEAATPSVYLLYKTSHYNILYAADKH

[4] = biological target: T4, PCAF (Homo sapiens, UniProt Q92831); set-up: Intact protein LC/MS covalent labelling, fragments in pools of five, 200 uM each, 4 °C; conditions: 24 h, 4 °C, pool of five; 200 µM; covalent
T4 construct: gene KAT2B
T4 sequence (Q92831 whole entry, the tested form may be a part): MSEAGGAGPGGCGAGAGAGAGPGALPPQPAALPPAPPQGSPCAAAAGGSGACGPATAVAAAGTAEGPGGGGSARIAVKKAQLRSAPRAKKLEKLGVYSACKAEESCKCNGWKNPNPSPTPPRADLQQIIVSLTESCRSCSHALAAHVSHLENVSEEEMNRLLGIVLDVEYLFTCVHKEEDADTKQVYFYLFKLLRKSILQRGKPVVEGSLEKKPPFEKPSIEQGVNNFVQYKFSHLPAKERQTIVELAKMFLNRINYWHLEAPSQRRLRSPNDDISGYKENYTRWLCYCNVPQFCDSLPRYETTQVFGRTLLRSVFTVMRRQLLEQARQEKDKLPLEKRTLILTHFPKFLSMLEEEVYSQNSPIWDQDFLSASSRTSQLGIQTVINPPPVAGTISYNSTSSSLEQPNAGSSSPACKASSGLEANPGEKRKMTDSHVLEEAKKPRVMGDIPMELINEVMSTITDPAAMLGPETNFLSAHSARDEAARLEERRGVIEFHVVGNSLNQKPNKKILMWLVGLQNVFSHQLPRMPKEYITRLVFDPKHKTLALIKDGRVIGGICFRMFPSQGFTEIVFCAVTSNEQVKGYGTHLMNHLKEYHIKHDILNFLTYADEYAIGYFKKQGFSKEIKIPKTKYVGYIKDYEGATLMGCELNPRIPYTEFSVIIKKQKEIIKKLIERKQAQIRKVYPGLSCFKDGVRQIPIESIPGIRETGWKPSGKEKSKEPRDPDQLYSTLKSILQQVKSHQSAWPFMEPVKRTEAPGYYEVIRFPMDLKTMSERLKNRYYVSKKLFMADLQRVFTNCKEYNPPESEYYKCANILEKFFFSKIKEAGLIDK

[5] = in vitro; set-up: species or system CCD841, HEK293; conditions: human, hb2 cells, read-out: HB-2 Cells Viability (%)
[6] = in vitro; set-up: species or system HB2, HEK293; conditions: human, ccd841 cells
[7] = in vitro; set-up: species or system HB2, CCD841; conditions: human, hek293 cells

## O=C(CCl)Nc1ccc(Br)cc1F [PCM-0102926]
[1]
  BSA: 0
[2]
  NUDT7: 0.17
[3]
  OTUB2: 0.2
[4]
  PCAF: 0
[5]
  viability at 48 h, 10 µM: 50.9%
[6]
  viability at 48 h, 10 µM: 59.9%
[7]
  viability at 48 h, 10 µM: 32.5%

## C=CC(=O)N1Cc2ccccc2OC(C)(C)C1 [PCM-0102927]
[1]
  BSA: 0
[2]
  NUDT7: 0
[3]
  OTUB2: 0
[4]
  PCAF: 0
[5]
  viability at 48 h, 10 µM: 104%
[6]
  viability at 48 h, 10 µM: 111%
[7]
  viability at 48 h, 10 µM: 93.4%

## CC(C)c1nnc(NC(=O)CCl)s1 [PCM-0102928]
[1]
  BSA: 0
[2]
  NUDT7: 0.04
[3]
  OTUB2: 0
[4]
  PCAF: 0
[5]
  viability at 48 h, 10 µM: 85.3%
[6]
  viability at 48 h, 10 µM: 77.9%
[7]
  viability at 48 h, 10 µM: 81.8%

## Cl.O=C(CCl)Nc1ccncc1 [PCM-0102930]
[1]
  BSA: 0
[2]
  NUDT7: 0
[3]
  OTUB2: 0
[4]
  PCAF: 0
[5]
  viability at 48 h, 10 µM: 86.4%
[6]
  viability at 48 h, 10 µM: 90.7%
[7]
  viability at 48 h, 10 µM: 90.5%

## CC1CCCN(C(=O)C2CCN(C(=O)CCl)CC2)C1 (stereo not drawn) [PCM-0102933]
[1]
  BSA: 0
[2]
  NUDT7: 0
[3]
  OTUB2: 0
[4]
  PCAF: 0
[5]
  viability at 48 h, 10 µM: 92.6%
[6]
  viability at 48 h, 10 µM: 80.1%
[7]
  viability at 48 h, 10 µM: 57.9%

## O=C(CCl)NC1(c2ccccc2)CCC1 [PCM-0102935]
[1]
  BSA: 0
[2]
  NUDT7: 0.29
[3]
  OTUB2: 0
[4]
  PCAF: 0
[5]
  viability at 48 h, 10 µM: 81.5%
[6]
  viability at 48 h, 10 µM: 89.7%
[7]
  viability at 48 h, 10 µM: 53.8%

## CCOC(=O)C1CCCCN1C(=O)CCl (stereo not drawn) [PCM-0102937]
[1]
  BSA: 0
[2]
  NUDT7: 0
[3]
  OTUB2: 0.13
[4]
  PCAF: 0
[5]
  viability at 48 h, 10 µM: 90.3%
[6]
  viability at 48 h, 10 µM: 89.4%
[7]
  viability at 48 h, 10 µM: 71.9%

## O=C(CCl)N1CCOC2CCCCC21 (stereo not drawn) [PCM-0102940]
[1]
  BSA: 0
[2]
  NUDT7: 0
[3]
  OTUB2: 0
[4]
  PCAF: 0
[5]
  viability at 48 h, 10 µM: 93.7%
[6]
  viability at 48 h, 10 µM: 95.8%
[7]
  viability at 48 h, 10 µM: 74%

## CC(C)N(C(=O)CCl)C1CCCCC1 [PCM-0102941]
[1]
  BSA: 0.3
[2]
  NUDT7: 0.17
[3]
  OTUB2: 0
[4]
  PCAF: 0
[5]
  viability at 48 h, 10 µM: 85.7%
[6]
  viability at 48 h, 10 µM: 26%
[7]
  viability at 48 h, 10 µM: 56.3%

## CN(CC12CC3CC(CC(C3)C1)C2)C(=O)CCl [PCM-0102942]
[1]
  BSA: 0
[2]
  NUDT7: 0.26
[3]
  OTUB2: 0.1
[4]
  PCAF: 0
[5]
  viability at 48 h, 10 µM: 7.8%
[6]
  viability at 48 h, 10 µM: 6.7%
[7]
  viability at 48 h, 10 µM: 2.4%

## CC1CCN(C(=O)CCl)CC1 [PCM-0102945]
[1]
  BSA: 0
[2]
  NUDT7: 0
[3]
  OTUB2: 0
[4]
  PCAF: 0
[5]
  viability at 48 h, 10 µM: 103%
[6]
  viability at 48 h, 10 µM: 108%
[7]
  viability at 48 h, 10 µM: 88.3%

## CC(C)N(C(=O)CCl)C1CCCC1 [PCM-0102948]
[1]
  BSA: 0
[2]
  NUDT7: 0.13
[3]
  OTUB2: 0
[4]
  PCAF: 0
[5]
  viability at 48 h, 10 µM: 88.4%
[6]
  viability at 48 h, 10 µM: 102%
[7]
  viability at 48 h, 10 µM: 84.3%

## Cc1nn(C)c(C)c1NC(=O)CCl [PCM-0102949]
[1]
  BSA: 0
[2]
  NUDT7: 0
[3]
  OTUB2: 0
[4]
  PCAF: 0
[5]
  viability at 48 h, 10 µM: 93.9%
[6]
  viability at 48 h, 10 µM: 83.8%
[7]
  viability at 48 h, 10 µM: 99.6%

## O=C(CCl)NNC(=O)c1ccc(Cl)cc1 [PCM-0102953]
[1]
  BSA: 0
[2]
  NUDT7: 0
[3]
  OTUB2: 0.18
[4]
  PCAF: 0
[5]
  viability at 48 h, 10 µM: 83%
[6]
  viability at 48 h, 10 µM: 82.1%
[7]
  viability at 48 h, 10 µM: 82.8%

## O=C(CCl)NNC(=O)c1ccccc1Cl [PCM-0102954]
[1]
  BSA: 0
[2]
  NUDT7: 0
[3]
  OTUB2: 0.8
[4]
  PCAF: 0
[5]
  viability at 48 h, 10 µM: 91.9%
[6]
  viability at 48 h, 10 µM: 72.3%
[7]
  viability at 48 h, 10 µM: 91.3%

## C=CC(=O)Nc1cccc(C#N)c1 [PCM-0102956]
[1]
  BSA: 0
[2]
  NUDT7: 0
[3]
  OTUB2: 0
[4]
  PCAF: 0
[5]
  viability at 48 h, 10 µM: 104%
[6]
  viability at 48 h, 10 µM: 102%
[7]
  viability at 48 h, 10 µM: 74.5%

## Cc1ccc(CNC(=O)CCl)cc1F [PCM-0102959]
[1]
  BSA: 0
[2]
  NUDT7: 0
[3]
  OTUB2: 0.5
[4]
  PCAF: 0
[5]
  viability at 48 h, 10 µM: 86.6%
[6]
  viability at 48 h, 10 µM: 84%
[7]
  viability at 48 h, 10 µM: 62.6%

## C=CC(=O)N1CCC(C#N)(c2ccccn2)CC1 [PCM-0102960]
[1]
  BSA: 0
[2]
  NUDT7: 0
[3]
  OTUB2: 0.06
[4]
  PCAF: 0
[5]
  viability at 48 h, 10 µM: 102%
[6]
  viability at 48 h, 10 µM: 110%
[7]
  viability at 48 h, 10 µM: 104%

## C=CC(=O)Nc1cccc(Cl)c1 [PCM-0102961]
[1]
  BSA: 0
[2]
  NUDT7: 0
[3]
  OTUB2: 0
[4]
  PCAF: 0
[5]
  viability at 48 h, 10 µM: 97.3%
[6]
  viability at 48 h, 10 µM: 103%
[7]
  viability at 48 h, 10 µM: 80.4%

## C=CC(=O)NC(O)C(Cl)(Cl)Cl (stereo not drawn) [PCM-0102963]
[1]
  BSA: 0
[2]
  NUDT7: 0
[3]
  OTUB2: 0
[4]
  PCAF: 0
[5]
  viability at 48 h, 10 µM: 102%
[6]
  viability at 48 h, 10 µM: 89.7%
[7]
  viability at 48 h, 10 µM: 94.7%

## CC(=O)c1cccc(NC(=O)CCl)c1 [PCM-0102965]
[1]
  BSA: 0
[2]
  NUDT7: 0
[3]
  OTUB2: 0.36
[4]
  PCAF: 0
[5]
  viability at 48 h, 10 µM: 2.5%
[6]
  viability at 48 h, 10 µM: 11%
[7]
  viability at 48 h, 10 µM: 1.9%

## C=CC(=O)N1CCC(n2ncc3ccccc32)C1 (stereo not drawn) [PCM-0102966]
[1]
  BSA: 0
[2]
  NUDT7: 0
[3]
  OTUB2: 0.42
[4]
  PCAF: 0
[5]
  viability at 48 h, 10 µM: 105%
[6]
  viability at 48 h, 10 µM: 95.1%
[7]
  viability at 48 h, 10 µM: 86.3%

## Cc1sc(NC(=O)CCl)c(C)c1C [PCM-0102968]
[1]
  BSA: 0
[2]
  NUDT7: 0
[3]
  OTUB2: 0
[4]
  PCAF: 0
[5]
  viability at 48 h, 10 µM: 16.1%
[6]
  viability at 48 h, 10 µM: 57.3%
[7]
  viability at 48 h, 10 µM: 2.3%

## CS(C)(=O)=NC(=O)CCl [PCM-0102969]
[1]
  BSA: 0
[2]
  NUDT7: 0
[3]
  OTUB2: 0
[4]
  PCAF: 0
[5]
  viability at 48 h, 10 µM: 96.1%
[6]
  viability at 48 h, 10 µM: 97.5%
[7]
  viability at 48 h, 10 µM: 102%
